Data as given in patent publication US11549123B2, “Plant EPSP synthases and methods of use” (PIONEER HI-BRED INTERNATIONAL, INC., priority 2015, dated 2023).

How the values were obtained:
Format in all cases: biochemical
[1] = target: T1, Zea mays EPSPS variant Zm-H6 (868-H6) with R61Y (H6-R61Y) (Zea mays, UniProt O24566, A1R/A3W/A415G/A71Q/D401G/E301S/E390G/G101A/I207L/K83R/L97C/R60Y/T278A/T360S/T440Q/V437R); test: Substrate saturation kinetic analysis with glyphosate, H6-R61Y
T1 construct: 868-H6 plus R61Y; E. coli BL21(DE3), Ni-NTA purified
T1 sequence (O24566 with tags, fused parts or gaps A1R/A3W/R60Y/A71Q/K83R/L97C/G101A/I207L/T278A/E301S/T360S/E390G/D401G/A415G/V437R/T440Q): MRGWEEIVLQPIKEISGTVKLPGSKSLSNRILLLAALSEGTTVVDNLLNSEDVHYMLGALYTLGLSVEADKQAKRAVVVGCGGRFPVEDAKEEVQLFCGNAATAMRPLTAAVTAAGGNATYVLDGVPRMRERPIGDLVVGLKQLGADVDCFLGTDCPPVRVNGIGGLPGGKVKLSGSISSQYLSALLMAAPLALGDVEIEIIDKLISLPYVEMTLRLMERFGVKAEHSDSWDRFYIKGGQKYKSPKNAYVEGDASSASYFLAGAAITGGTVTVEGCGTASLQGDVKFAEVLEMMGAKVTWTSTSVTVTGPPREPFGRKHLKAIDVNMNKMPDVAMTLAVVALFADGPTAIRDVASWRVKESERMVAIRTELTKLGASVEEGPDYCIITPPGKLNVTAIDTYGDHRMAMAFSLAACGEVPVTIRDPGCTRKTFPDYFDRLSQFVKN

[2] = target: Zea mays EPSPS variant WT-FS-B (103I 107S 278G 338S) (Zea mays, UniProt O24566, A337S/P106S/T102I/T277G); test: EPSPS substrate saturation kinetics, WT-FS-B
Zea mays EPSPS variant WT-FS-B (103I 107S 278G 338S), sequence (O24566 entry or part of it T102I/P106S/T277G/A337S): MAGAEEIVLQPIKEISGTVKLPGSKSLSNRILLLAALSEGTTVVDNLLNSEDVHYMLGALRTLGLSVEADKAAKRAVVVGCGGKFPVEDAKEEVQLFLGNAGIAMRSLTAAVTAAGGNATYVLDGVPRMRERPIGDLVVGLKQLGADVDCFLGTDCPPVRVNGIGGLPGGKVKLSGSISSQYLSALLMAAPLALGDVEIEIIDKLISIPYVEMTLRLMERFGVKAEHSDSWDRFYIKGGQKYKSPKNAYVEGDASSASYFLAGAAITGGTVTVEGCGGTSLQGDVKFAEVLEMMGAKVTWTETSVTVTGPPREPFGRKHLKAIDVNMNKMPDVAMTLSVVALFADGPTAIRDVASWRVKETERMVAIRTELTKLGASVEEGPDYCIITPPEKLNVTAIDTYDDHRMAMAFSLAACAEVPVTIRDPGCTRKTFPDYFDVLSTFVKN
Protocol: EPSPS activity was determined by quantifying the phosphate generated from the EPSPS reaction. Release of inorganic phosphate was coupled to reaction with 2-amino-6-mercapto-7-methylpurine ribonucleoside, catalyzed by purine-nucleoside phosphorylase (M R Webb, Proc. Natl. Acad. Sci. 89:4884-4887, 1992). The absorbance change that occurs was monitored at 360 nm, where the extinction is 11,200 M^−1 cm^−1, with a Spectramax plate reader (Molecular Devices). To determine kinetic parameters, the varied substrate was present at seven concentrations (the eighth being the blank, containing no substrate) ranging from 4 to 400 uM and the unvaried substrate present at saturation. […] Reactions were monitored with a Spectramax plate reader. […] KI was then calculated from the following form of the Michaelis-Menten equation for competitive inhibition: KI=KM[I]/(KM app−KM) KM approximates the dissociation constant of the enzyme-substrate complex while kcat is the rate of conversion of substrate to product when the substrate concentration is saturating. kcat/KM is a widely accepted parameter for catalytic efficiency when substrate concentration is low (˜KM). […] The parameter kcat/KM×KI is used to quantify both catalytic efficiency and insensitivity and thus the overall fitness of the enzyme. […]

[3] = target: T1, Zea mays EPSPS variant Zm-H6 (868-H6) with R61Y (H6-R61Y); test: Rapid two-rate method for (kcat/KM)*KI, H6-R61Y; conditions: [E] 0.07 uM, [Gly] 1000 uM
Text: There are several practical considerations for accurately estimating (kcat/KM)*KI with the rapid method. […] 2) The inhibitor concentration must be adjusted so as to obtain a degree of inhibition that minimally amplifies the error in the term v0-vi in Equation 3. If inhibition is too little, v0-vi will be small, and the error in the multiplier vi×v0/(v0-vi) will be large. […] 3) Substrate concentration should be set at the approximate KM of the parental variant(s), subject to the sensitivity of the assay. High substrate concentration obscures sensitivity to the inhibitor and reduces stringency for capturing improvements in KM. Depending on the necessity for speed, there exists opportunity for customizing enzyme and inhibitor concentrations. […] The rapid method was repeated for those and obtained data that correlated better with data obtained by substrate saturation analysis. For screening purposes however, that correlation step is not necessary. Conditions can be set so that variants with a pre-determined minimal fitness level are accurately quantified.
In Table 15, parameters above the heavy line for the rapid method were obtained under standard conditions. For variants shown below the heavy line, the rapid analysis was repeated with enzyme or glyphosate concentrations adjusted as needed to generate sufficient signal within the limits for linear initial rates.

O=C(O)CNCP(=O)(O)O [glyphosate, N-phosphonomethylglycine]
Ki [1]: 309 µM
(kcat/KM)*KI ([1]; substrate saturation, H6-R61Y): 1640
Ki [2]: 552 µM
(kcat/KM)*KI ([2]; PEP as substrate, glyphosate as inhibitor): 1971
(kcat/KM)*KI [3]: 1889
